Reference: patent publication US9034871B2, “Compounds for Alzheimer's disease” (priority 2004, dated 2015)

System: Aβ42
Assay: Detection of secreted Aβ42 with Biosource ELISA kit in H4 cells expressing APP695
Type: cell-based
Settings: Ab42 lowering, cell based assay; read-out: Ab42 IC50
Procedure: The present invention provides compositions and methods for lowering Aβ42 levels. To test whether compounds and compositions are capable of modulating Aβ levels, a sandwich enzyme-linked immunosorbent assay (ELISA) is employed to measure secreted Aβ (Aβ42 and/or Aβ40) levels. In this example, H4 cells expressing wide type APP695 are seeded at 200,000 cells/per well in 6 well plates, and incubated at 37 degree C. with 5% CO2 overnight. Cells are treated with 1.5 ml medium containing vehicle (DMSO) or a test compound at 1.25 μM, 2.5 μM, 5.0 μM and 10.0 μM (as well as other concentration if desirable) concentration for 24 hours or 48 hours. The supernatant from treated cells is collected into eppendorf tubes and frozen at −80 degree C. for future analysis.
The amyloid peptide standard is reconstituted and frozen samples are thawed. The samples and standards are diluted with appropriate diluents and the plate is washed 4 times with Working Wash Buffer and patted dry on a paper towel. 100 μL per well of peptide standards, controls, and dilutions of samples to be analyzed is added. The plate is incubated for 2 hours while shaking on an orbital plate shaker at RT. The plate is then washed 4 times with Working Wash Buffer and patted dry on a paper towel. Detection Antibody Solution is poured into a reservoir and 100 μL /well of Detection Antibody Solution is immediately added to the plate. The plate is incubated at RT for 2 hours while shaking and then washed four times with Working Wash Buffer and patted dry on a paper towel. Secondary Antibody Solution is then poured into a reservoir and 100 μL /well of Secondary Antibody Solution is immediately added to the plate. The plate is incubated at RT for 2 hours with shaking, washed 5 times with Working Wash Buffer, and patted dry on a paper towel.
100 μL of stabilized chromogen is added to each well and the liquid in the wells begins to turn blue. The plate is incubated for 30 minutes at room temperature and in the dark. 100 μL of stop solution is added to each well and the plate is tapped gently to mix resulting in a change of solution color from blue to yellow. The absorbance of each well is read at 450 nm having blanked the plate reader against a chromogen blank composed of 100 μL each of stabilized chromogen and stop solution. The plate is read within 2 hours of adding the stop solution. The absorbance of the standards is plotted against the standard concentration and the concentrations of unknown samples and controls are calculated.
These compounds were synthesized via the indicated synthetic route. Ab42 IC50 (uM) refers to IC50 value for Ab42 lowering in e.g., the assay described in Example 6.

IC50 [µM] | Structure (SMILES)
4.5 | O=C(O)CCCc1ccc(-n2c(-c3cc(-c4ccccc4)no3)cc3c4ccccc4ccc32)cc1 [4-{4-[2-(3-phenylisoxazol-5-yl)-benzo[e]indol-3-yl]-phenyl} butyric acid]
> 100 | O=C(O)c1cccc(-c2cc3c4ccccc4ccc3n2-c2ccoc2)c1 [3-(3-furan-3-yl-3H-benzo[e]indol-2-yl) benzoic acid]
46 | c1cncc(-c2cc3c4ccccc4ccc3n2-c2cccc(-c3nn[nH]n3)c2)c1 [2-pyridin-3-yl-3-[3-(2H-tetrazol-5-yl)-phenyl]-3H-benzo[e]indole]
> 100 | O=C(O)c1cccc(-n2c(-c3cccnc3)cc3c4ccccc4ccc32)c1 [3-(2-pyridin-3-yl-benzo[e]indol-3-yl) benzoic acid]
70.8 | O=C(O)c1cccc(-n2c(-c3ccccc3)cc3c2CC(c2ccccn2)CC3)c1 (centres unmarked) [3-(2-phenyl-6-pyridin-2-yl-4,5,6,7-tetrahydroindol-1-yl) benzoic acid]
6.5 | CCC(C)(C)C1CCc2c(cc(-c3ccccc3)n2-c2nc(CC(=O)O)cs2)C1 (centres unmarked) [{2-[5-(1,1-dimethylpropyl)-2-phenyl-4,5,6,7-tetrahydroindol-1-yl]-thiazol-4-yl} acetic acid]
16.5 | O=C(O)c1ccc(-n2c(-c3ccccc3)cc3c2CCC(C(F)(F)F)C3)o1 (centres unmarked) [5-(2-phenyl-5-trifluoromethyl 4,5,6,7-tetrahydroindol-1-yl)-furan-2-carboxylic acid]
63 | CC(C)(C)C1CCc2c(cc(-c3ccccc3)n2-c2nnc[nH]2)C1 (centres unmarked) [5-tButyl-2-phenyl-1-(4H-[1,2,4]triazol-3-yl)-4,5,6,7-tetrahydro-1H-indole]
21 | O=C(O)c1ccc(-n2c(-c3ccc(C(F)(F)F)cc3)cc3c4ccccc4ccc32)o1 [5-[2-(4-trifluoromethylphenyl)-benzo[e]indol-3-yl]-furan-2-carboxylic acid]
23 | O=C(O)c1ccc(-n2c(-c3cc4ccccc4o3)cc3c2CC(C(F)(F)F)CC3)o1 (centres unmarked) [5-(2-benzofuran-2-yl-6-trifluoromethyl-4,5,6,7-tetrahydroindol-1-yl)-furan-2-carboxylic acid]
25 | O=C(O)c1ccc(-n2c(-c3ccccc3)cc3c2CC(C(F)(F)F)CC3)o1 (centres unmarked) [5-(2-phenyl-6-trifluoromethyl 4,5,6,7-tetrahydroindol-1-yl)-furan-2-carboxylic acid]
1.17 | O=C(O)c1cccc(-n2c(-c3cc4ccccc4o3)cc3c4ccccc4ccc32)c1 [3-(2-benzofuran-2-yl-benzo[e]indol-3-yl) benzoic acid]
31 | Cc1onc(-c2ccccc2)c1-c1cc2c3ccccc3ccc2n1-c1cccc(-c2nn[nH]n2)c1
> 100 | CC1CCc2cc(-c3ccccc3)n(-c3ccc(C(=O)O)o3)c2C1 (centres unmarked) [5-(6-methyl-2-phenyl-4,5,6,7-tetrahydroindol-1-yl) furan-2-carboxylic acid]
22 | O=C(O)c1ccc(-n2c(-c3ccccc3)cc3c4ccccc4ccc32)o1 [5-(2-phenylbenzo[e]indol-3-yl)furan-2-carboxylic acid]
> 100 | O=C(O)c1ccc(-c2cc3c(n2-c2cccnc2)CCc2ccccc2-3)cc1 [4-(3-pyridin-3-yl-4,5-dihydro-3H-benzo[e]indol-2-yl) benzoic acid]
24 | c1ccc(-c2cc3c(n2-c2cccc(-c4nn[nH]n4)c2)CCc2ccccc2-3)cc1 [drawing 1720, 2-phenyl-3-[3-(2H-tetrazol-5-yl)-phenyl]-4,5-dihydro-3H-benzo[e]indole]
44 | O=C(O)c1ccc(-n2c(-c3cc4ccccc4o3)cc3c2CCC(C(F)(F)F)C3)o1 (centres unmarked) [5-(2-benzofuran-2-yl-5-trifluoromethyl-4,5,6,7-tetrahydroindol-1-yl)-furan-2-carboxylic acid]
> 100 | O=C(O)c1ccc(-c2cc3c4ccccc4ccc3n2-c2ccoc2)cc1 [4-(3-furan-3-yl-3H-benzo[e]indol-2-yl) benzoic acid]
9.3 | c1cc(-c2nn[nH]n2)cc(-n2c(-c3cc4ccccc4o3)cc3c2CCc2ccccc2-3)c1 [2-benzofuran-2-yl-3-[3-(2H-tetrazol-5-yl)-phenyl]-4,5-dihydro-3H-benzo[e]indole]
> 100 | O=C(O)c1coc(Cn2c(-c3cc(-c4ccccc4)no3)cc3c2CCc2ccccc2-3)c1 [5-[2-(3-phenylisoxazol-5-yl)-4,5-dihydrobenzo[e]indol-3-ylmethyl] furan-3-carboxylic acid]
5.1 | CCC(C)(C)C1CCc2c(cc(-c3ccccc3)n2-c2ccc(C(=O)O)o2)C1 (centres unmarked) [5-[5-(1,1-dimethylpropyl)-2-phenyl-4,5,6,7-tetrahydroindol-1-yl]-furan-2-carboxylic acid]
0.56 | O=C(O)c1cccc(-n2c(-c3cc4ccccc4o3)cc3c2CCc2ccccc2-3)c1 [3-(2-benzofuran-2-yl-4,5-dihydrobenzo[e]indol-3-yl) benzoic acid]
20 | O=C(O)c1cccc(-n2c(-c3ccc4c(c3)OCO4)cc3c4ccccc4ccc32)c1 [3-(2-benzo[1,3]dioxol-5-yl-benzo[e]indol-3-yl) benzoic acid]

Same assay, conditions: IC50 value for Ab42 lowering in e.g. the assay described in Example 6; read-out: Ab42 IC50

IC50 [µM] | Structure (SMILES)
50 | O=C(O)c1cccc(-n2c(-c3ccccc3)cc3c2CCC(c2ccccc2)C3)c1 (centres unmarked) [Compound 71, 3-(2,5-diphenyl 4,5,6,7-tetrahydroindol-1-yl) benzoic acid]
8 | O=C(O)CCCc1ccc(-n2c(-c3ccccc3)cc3c4ccccc4ccc32)cc1 [Compound 89, 4-[4-(2-phenyl-benzo[e]indol-3-yl)-phenyl] butyric acid]
54 | O=C(O)C1CCCC(n2c(-c3ccccc3)cc3c4ccccc4ccc32)C1 (centres unmarked) [Compound 66, 3-(2-phenylbenzo[e]indol-3-yl) cyclohexane carboxylic acid]
12 | O=C(O)c1cccc(-n2c(-c3ccccc3)cc3c4ccccc4ccc32)c1 [Compound 87, 3-(2-phenylbenzo[e]indol-3-yl) benzoic acid]

Same assay, conditions: cell based assay described in Example 6; read-out: Ab42 lowering IC50

IC50 [µM] | Structure (SMILES)
2 | O=C(O)c1cccc(-n2c(-c3cc(-c4ccccc4)no3)cc3c2CCc2ccccc2-3)c1 [Compound 139]

System: not given
Assay: not given
Settings: clinical trials in AD patients; cited from earlier work

Structure (SMILES) | efficacy for treating AD
COc1ccc2cc([C@H](C)C(=O)O)ccc2c1 [Naproxen] | failed to show efficacy
CS(=O)(=O)c1ccc(C2=C(c3ccccc3)C(=O)OC2)cc1 [rofecoxib] | failed to show efficacy

System: not given
Assay: not given
Settings: large prevention trial, patients having mild cognitive impairment; placebo 4.5%; cited from earlier work

Structure (SMILES) | patients who developed AD [%]
CS(=O)(=O)c1ccc(C2=C(c3ccccc3)C(=O)OC2)cc1 [rofecoxib] | 6.4
